{"source": "ChEMBL document CHEMBL2073813", "about": "“Regulation of renal oatp mRNA expression by testosterone” (Am J Physiol, 1996)", "key": {"[1]": {"target": "T1, Solute carrier organic anion transporter family member 1A1 (Rattus norvegicus, UniProt P46720)", "T1 sequence (P46720 whole entry)": "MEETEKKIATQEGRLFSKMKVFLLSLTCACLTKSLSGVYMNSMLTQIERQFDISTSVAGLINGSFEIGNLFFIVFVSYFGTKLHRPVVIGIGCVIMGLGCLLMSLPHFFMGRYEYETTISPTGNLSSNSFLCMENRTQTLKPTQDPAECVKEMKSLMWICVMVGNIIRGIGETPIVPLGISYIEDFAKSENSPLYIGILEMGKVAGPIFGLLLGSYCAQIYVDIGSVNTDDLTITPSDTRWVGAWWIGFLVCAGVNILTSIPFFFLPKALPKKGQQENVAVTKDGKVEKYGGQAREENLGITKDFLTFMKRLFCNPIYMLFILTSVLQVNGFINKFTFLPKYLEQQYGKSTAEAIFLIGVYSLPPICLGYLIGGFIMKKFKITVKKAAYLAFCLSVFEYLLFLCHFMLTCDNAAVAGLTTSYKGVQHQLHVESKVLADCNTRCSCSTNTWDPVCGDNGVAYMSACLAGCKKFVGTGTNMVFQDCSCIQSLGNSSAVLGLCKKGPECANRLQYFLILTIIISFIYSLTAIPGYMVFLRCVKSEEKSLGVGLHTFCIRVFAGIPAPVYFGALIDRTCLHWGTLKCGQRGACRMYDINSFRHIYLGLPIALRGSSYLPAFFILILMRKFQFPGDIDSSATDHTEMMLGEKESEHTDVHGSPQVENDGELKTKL", "assay": "TP_TRANSPORTER: Northern blot", "assay_type": "functional"}, "[2]": {"target": "T1, Solute carrier organic anion transporter family member 1A1", "assay": "TP_TRANSPORTER: Northern blot in vivo, kidney of SD rat", "assay_type": "functional, organism-based, Sprague-Dawley"}}, "data": [{"smiles": "C[C@]12CC[C@@H]3c4ccc(O)cc4CC[C@H]3[C@@H]1CC[C@@H]2O", "note": "[ESTRADIOL]", "values": [{"measurement": "Activity", "setting": "[1]", "value": "inducer [+]"}]}, {"smiles": "C[C@]12CC[C@H]3[C@@H](CCC4=CC(=O)CC[C@@]43C)[C@@H]1CC[C@@H]2O", "note": "[TESTOSTERONE]", "values": [{"measurement": "Activity", "setting": "[2]", "value": "inducer [+]"}]}]}
